{"source": "ChEMBL document CHEMBL1773004", "about": "“1-[(1-methyl-1H-imidazol-2-yl)methyl]-4-phenylpiperidines as mGluR2 positive allosteric modulators for the treatment of psychosis” (J Med Chem, 2011)", "key": {"[1]": {"test": "Permeability from apical to basolateral side of MDR1 transfected MDCK cells at 1 uM", "assay_type": "ADME, cell-based, Canis lupus familiaris", "conditions": "dog, read-out: permeability"}, "[2]": {"test": "Plasma clearance in rat at 0.5 mg/kg, iv", "assay_type": "ADME, organism-based", "design": "dose 0.5 mg/kg, route intravenous"}, "Mus musculus [3]": {"system": "Mus musculus", "test": "Antipsychotic activity in sc dosed CD1 mouse assessed as inhibition of mescaline-induced scratching behavioral response administered 20 mins before mescalin challenge measured for 12 mins", "assay_type": "functional"}, "[4]": {"test": "Ratio of drug level in brain to plasma in rat at 3.2 mg/kg, sc after 60 mins", "assay_type": "ADME, organism-based", "design": "dose 3.2 mg/kg, route subcutaneous"}, "[5]": {"target": "Metabotropic glutamate receptor 5 (Homo sapiens) (UniProt P41594)", "sequence (P41594 21-1212 limits assumed)": "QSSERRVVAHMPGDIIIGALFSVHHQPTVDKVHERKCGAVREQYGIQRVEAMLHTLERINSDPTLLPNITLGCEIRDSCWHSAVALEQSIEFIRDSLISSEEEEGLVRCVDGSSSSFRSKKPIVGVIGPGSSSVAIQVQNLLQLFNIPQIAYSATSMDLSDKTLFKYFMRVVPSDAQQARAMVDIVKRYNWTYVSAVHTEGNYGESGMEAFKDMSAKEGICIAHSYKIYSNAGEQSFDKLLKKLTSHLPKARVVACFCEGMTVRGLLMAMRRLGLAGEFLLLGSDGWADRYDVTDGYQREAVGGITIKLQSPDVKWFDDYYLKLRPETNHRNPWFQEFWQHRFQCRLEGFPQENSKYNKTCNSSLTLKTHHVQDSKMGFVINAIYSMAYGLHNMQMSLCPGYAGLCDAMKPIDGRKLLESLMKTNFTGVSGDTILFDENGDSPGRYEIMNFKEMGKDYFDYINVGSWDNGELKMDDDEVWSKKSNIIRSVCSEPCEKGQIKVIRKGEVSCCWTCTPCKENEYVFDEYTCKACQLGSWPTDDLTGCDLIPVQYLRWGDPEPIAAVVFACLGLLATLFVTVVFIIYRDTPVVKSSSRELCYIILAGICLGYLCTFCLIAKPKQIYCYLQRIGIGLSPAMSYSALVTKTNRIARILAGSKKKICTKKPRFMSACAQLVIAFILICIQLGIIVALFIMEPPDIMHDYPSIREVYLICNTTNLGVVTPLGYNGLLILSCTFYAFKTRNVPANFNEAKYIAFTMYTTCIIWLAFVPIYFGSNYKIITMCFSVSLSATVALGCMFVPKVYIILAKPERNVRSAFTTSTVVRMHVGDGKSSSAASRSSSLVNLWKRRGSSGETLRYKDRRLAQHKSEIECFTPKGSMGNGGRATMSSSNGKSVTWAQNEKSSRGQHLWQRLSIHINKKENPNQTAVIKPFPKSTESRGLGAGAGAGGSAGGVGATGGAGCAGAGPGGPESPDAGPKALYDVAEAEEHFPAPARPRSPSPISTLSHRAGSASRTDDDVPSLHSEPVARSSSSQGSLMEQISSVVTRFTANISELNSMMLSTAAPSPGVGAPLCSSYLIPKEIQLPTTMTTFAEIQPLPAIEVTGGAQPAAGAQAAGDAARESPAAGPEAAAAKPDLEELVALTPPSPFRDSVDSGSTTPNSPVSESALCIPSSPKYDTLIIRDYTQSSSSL", "test": "Antagonist activity at mGlu5 receptor at up to 10 uM", "assay_type": "functional"}, "[6]": {"target": "Metabotropic glutamate receptor 1 (Homo sapiens) (UniProt Q13255)", "sequence (Q13255 19-1194 limits assumed)": "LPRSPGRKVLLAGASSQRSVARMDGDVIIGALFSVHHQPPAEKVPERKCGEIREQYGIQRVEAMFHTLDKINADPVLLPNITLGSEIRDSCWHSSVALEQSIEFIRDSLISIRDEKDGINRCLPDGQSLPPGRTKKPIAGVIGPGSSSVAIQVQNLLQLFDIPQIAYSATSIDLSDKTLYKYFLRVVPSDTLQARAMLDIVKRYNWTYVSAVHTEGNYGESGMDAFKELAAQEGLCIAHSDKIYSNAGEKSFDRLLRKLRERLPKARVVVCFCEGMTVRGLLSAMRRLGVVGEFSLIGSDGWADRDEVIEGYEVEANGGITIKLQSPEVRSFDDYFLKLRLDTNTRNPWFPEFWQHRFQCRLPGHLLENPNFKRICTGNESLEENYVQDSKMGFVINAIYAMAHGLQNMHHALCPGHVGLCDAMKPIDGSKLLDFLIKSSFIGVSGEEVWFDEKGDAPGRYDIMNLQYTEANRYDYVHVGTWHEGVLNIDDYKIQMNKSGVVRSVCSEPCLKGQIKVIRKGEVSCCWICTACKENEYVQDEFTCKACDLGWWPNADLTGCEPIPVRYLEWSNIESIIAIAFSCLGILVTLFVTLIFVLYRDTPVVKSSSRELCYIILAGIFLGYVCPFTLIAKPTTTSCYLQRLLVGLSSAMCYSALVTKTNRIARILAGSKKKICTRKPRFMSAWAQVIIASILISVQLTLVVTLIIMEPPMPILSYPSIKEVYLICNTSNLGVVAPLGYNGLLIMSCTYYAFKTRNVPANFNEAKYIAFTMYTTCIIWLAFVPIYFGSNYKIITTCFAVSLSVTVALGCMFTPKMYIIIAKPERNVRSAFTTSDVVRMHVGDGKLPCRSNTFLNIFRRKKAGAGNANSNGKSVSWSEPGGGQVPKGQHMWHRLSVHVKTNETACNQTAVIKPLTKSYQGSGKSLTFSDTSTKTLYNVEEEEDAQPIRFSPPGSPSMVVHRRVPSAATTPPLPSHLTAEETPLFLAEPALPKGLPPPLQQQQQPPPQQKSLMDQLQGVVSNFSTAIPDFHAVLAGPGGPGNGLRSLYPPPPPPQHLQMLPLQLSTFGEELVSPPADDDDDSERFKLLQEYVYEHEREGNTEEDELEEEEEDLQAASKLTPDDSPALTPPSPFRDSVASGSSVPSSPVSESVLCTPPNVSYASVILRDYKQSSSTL", "test": "Antagonist activity at mGlu1 receptor at up to 10 uM", "assay_type": "functional"}, "Mus musculus [7]": {"system": "Mus musculus", "test": "Antipsychotic activity in sc dosed mouse assessed as inhibition of methamphetamine-induced hyperlocomotion measured for 60 mins", "assay_type": "functional"}, "[8]": {"target": "Metabotropic glutamate receptor 5 (Homo sapiens) (UniProt P41594)", "test": "Agonist activity at mGlu5 receptor at up to 10 uM", "assay_type": "functional"}, "[9]": {"test": "Cmax in rat brain at 3 mg/kg, po", "assay_type": "ADME, organism-based", "design": "dose 3 mg/kg, route oral"}, "D(2) dopamine receptor": {"target": "D(2) dopamine receptor (Rattus norvegicus, UniProt P61169)", "sequence (P61169 whole entry)": "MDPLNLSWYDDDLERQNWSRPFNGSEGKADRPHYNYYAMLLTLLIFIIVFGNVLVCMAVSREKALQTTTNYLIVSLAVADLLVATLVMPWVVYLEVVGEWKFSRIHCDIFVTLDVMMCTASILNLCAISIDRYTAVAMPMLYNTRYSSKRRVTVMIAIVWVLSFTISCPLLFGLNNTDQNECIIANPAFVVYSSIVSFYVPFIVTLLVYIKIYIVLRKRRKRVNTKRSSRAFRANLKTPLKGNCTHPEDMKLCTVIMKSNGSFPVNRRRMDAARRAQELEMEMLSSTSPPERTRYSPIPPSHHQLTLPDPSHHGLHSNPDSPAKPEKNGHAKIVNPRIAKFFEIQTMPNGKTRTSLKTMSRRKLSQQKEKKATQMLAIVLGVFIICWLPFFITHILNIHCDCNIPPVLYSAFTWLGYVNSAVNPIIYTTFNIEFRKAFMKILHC", "test": "Displacement of [3H]spiperone from dopamine D2 receptor in rat corpus striatum by beta plate scintillation counting", "assay_type": "tissue-based"}, "[10]": {"test": "Oral bioavailability in rat at 3 mg/kg", "assay_type": "ADME, organism-based", "conditions": "in vivo"}, "[11]": {"test": "Ratio of drug level in brain to plasma in mouse at 10 mg/kg, sc after 60 mins", "assay_type": "ADME, organism-based", "design": "dose 10 mg/kg, route subcutaneous"}, "Brain": {"system": "Brain", "test": "Fraction unbound in rat brain by LC-MS/MS assay", "assay_type": "ADME, tissue-based"}, "[12]": {"target": "Metabotropic glutamate receptor 5 (Homo sapiens) (UniProt P41594)", "test": "Positive allosteric modulation of mGlu5 receptor at up to 10 uM"}, "[13]": {"target": "Metabotropic glutamate receptor 1 (Homo sapiens) (UniProt Q13255)", "test": "Agonist activity at mGlu1 receptor at up to 10 uM", "assay_type": "functional"}, "[14]": {"target": "Metabotropic glutamate receptor 2 (Rattus norvegicus, UniProt P31421)", "sequence (P31421 whole entry)": "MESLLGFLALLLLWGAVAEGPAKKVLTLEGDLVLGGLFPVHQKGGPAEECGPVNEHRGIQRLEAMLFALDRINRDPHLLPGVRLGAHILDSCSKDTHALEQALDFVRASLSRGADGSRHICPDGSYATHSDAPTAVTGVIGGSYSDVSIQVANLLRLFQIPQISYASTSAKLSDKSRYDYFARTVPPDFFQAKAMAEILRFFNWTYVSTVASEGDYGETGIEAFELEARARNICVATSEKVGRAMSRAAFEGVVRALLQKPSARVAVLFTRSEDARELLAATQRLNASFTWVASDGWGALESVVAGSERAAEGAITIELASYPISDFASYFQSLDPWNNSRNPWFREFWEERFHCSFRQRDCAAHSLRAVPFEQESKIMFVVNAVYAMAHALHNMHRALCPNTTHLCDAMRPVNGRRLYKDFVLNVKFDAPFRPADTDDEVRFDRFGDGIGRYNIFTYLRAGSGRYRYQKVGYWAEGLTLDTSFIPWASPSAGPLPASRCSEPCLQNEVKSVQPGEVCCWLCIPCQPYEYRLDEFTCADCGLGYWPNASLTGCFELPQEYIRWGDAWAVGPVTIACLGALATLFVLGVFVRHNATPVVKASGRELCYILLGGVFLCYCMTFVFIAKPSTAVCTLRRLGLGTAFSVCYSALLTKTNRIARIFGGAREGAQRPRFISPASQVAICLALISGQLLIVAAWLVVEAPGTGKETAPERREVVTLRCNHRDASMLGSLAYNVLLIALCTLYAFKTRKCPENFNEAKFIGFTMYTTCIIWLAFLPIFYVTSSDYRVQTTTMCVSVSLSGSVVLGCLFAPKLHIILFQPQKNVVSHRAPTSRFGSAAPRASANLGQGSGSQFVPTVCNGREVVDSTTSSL", "test": "Positive allosteric modulation of rat mGluR2 expressed in HEK293 cells co-expressing Galpha15 G protein assessed as increase in glutamate-induced intracellular calcium release by FLIPR assay", "assay_type": "functional, cell-based"}, "[15]": {"target": "Metabotropic glutamate receptor 2 (Homo sapiens, UniProt Q14416)", "sequence (Q14416 whole entry)": "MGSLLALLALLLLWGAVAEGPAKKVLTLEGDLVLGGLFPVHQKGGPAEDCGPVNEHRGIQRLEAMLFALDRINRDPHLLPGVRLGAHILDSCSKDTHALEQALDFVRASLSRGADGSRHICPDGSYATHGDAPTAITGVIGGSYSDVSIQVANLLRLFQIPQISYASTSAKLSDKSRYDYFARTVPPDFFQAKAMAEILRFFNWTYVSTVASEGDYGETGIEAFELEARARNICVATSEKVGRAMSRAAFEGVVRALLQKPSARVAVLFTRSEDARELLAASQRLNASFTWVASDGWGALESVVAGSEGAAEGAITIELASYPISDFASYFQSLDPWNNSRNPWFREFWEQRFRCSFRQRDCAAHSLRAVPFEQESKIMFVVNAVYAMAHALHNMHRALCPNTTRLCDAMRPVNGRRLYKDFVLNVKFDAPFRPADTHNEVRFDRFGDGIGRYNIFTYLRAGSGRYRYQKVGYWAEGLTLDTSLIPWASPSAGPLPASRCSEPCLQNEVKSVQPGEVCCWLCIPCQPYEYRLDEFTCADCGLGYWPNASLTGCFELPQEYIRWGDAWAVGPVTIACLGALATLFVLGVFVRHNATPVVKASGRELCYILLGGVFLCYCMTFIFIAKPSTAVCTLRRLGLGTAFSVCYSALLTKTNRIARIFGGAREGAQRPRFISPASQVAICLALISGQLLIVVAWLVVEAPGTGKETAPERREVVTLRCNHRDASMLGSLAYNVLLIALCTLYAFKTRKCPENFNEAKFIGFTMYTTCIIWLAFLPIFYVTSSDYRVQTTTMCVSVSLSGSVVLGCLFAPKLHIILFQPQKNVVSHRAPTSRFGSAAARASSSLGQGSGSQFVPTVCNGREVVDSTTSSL", "test": "Positive allosteric modulation of human mGluR2 expressed in HEK293 cells co-expressing Galpha15 G protein assessed as increase in glutamate-induced intracellular calcium release by FLIPR assay", "assay_type": "functional, cell-based"}, "[16]": {"test": "Plasma clearance in rat at 1 mg/kg, iv", "assay_type": "ADME, organism-based", "design": "dose 1 mg/kg, route intravenous"}, "[17]": {"test": "Cmax in rat brain at 10 mg/kg, po", "assay_type": "ADME, organism-based", "design": "dose 10 mg/kg, route oral"}, "MDCK": {"system": "MDCK", "test": "Efflux ratio of permeability from […] of MDR1 transfected MDCK cells at 1 uM", "assay_type": "ADME, cell-based, Canis lupus familiaris", "conditions": "dog"}, "HEK293": {"system": "HEK293", "test": "Selectivity ratio of Ki for dopamine D2 receptor in rat corpus striatum to EC50 for rat mGluR2 expressed in HEK293 cells", "assay_type": "cell-based"}, "[18]": {"test": "Oral bioavailability in rat at 10 mg/kg", "assay_type": "ADME, organism-based", "conditions": "in vivo"}}, "note": "Active and inactive are the calls of the source. The calls are words filed in the database; no cut-off is given here.", "data": [{"smiles": "C[C@H]1CN(Cc2nc3ncccc3n2C)CC[C@H]1c1ccc(OC(F)(F)F)cc1F", "values": [{"measurement": "Papp A→B at 1 µM", "setting": "[1]", "result": 140, "unit": "nm/s"}, {"measurement": "clearance", "setting": "[2]", "result": 0.27, "unit": "L/h/kg"}, {"measurement": "inhibition", "setting": "Mus musculus [3]", "result": "Dose-dependent effect"}, {"measurement": "minimal effective dose", "setting": "Mus musculus [3]; read-out: MED", "result": 10, "unit": "mg/kg"}, {"measurement": "Kp at 1 h", "setting": "[4]", "result": 4}, {"measurement": "Activity", "setting": "[5]", "result": "inactive"}, {"measurement": "Activity", "setting": "[6]", "result": "inactive"}, {"measurement": "inhibition", "setting": "Mus musculus [7]", "result": "Dose-dependent effect"}, {"measurement": "minimal effective dose", "setting": "Mus musculus [7]; 1 h, read-out: MED", "result": 17.8, "unit": "mg/kg"}, {"measurement": "Activity", "setting": "[8]", "result": "inactive"}, {"measurement": "Cmax", "setting": "[9]", "result": 1.07, "unit": "µM"}, {"measurement": "Ki", "setting": "D(2) dopamine receptor", "result": "> 4.68", "unit": "µM"}, {"measurement": "bioavailability", "setting": "[10]", "result": 50, "unit": "%"}, {"measurement": "Kp at 1 h", "setting": "[11]", "result": 1.2}, {"measurement": "Fu", "setting": "Brain", "result": 0.3, "unit": "%"}, {"measurement": "Activity", "setting": "[12]", "result": "inactive"}, {"measurement": "Activity", "setting": "[13]", "result": "inactive"}]}, {"smiles": "C[C@H]1CN(Cc2nc3ncccc3n2C)CC[C@H]1c1ccc(C(F)(F)F)cc1", "note": "(racemic)", "values": [{"measurement": "Ki", "setting": "D(2) dopamine receptor", "result": "> 2.8", "unit": "µM"}, {"measurement": "EC50", "setting": "[14]", "result": 0.111, "unit": "µM"}]}, {"smiles": "COc1cc(C(F)(F)F)ccc1[C@H]1CCN(Cc2nc3ncccc3n2C)C[C@H]1C", "values": [{"measurement": "EC50", "setting": "[14]", "result": 0.787, "unit": "µM"}]}, {"smiles": "Cn1c(CN2CC[C@@H](c3ccc(C(F)(F)F)cc3)C(C)(C)C2)nc2ncccc21", "values": [{"measurement": "Ki", "setting": "D(2) dopamine receptor", "result": "> 2.8", "unit": "µM"}, {"measurement": "EC50", "setting": "[14]", "result": 0.745, "unit": "µM"}]}, {"smiles": "CNC(=O)c1cccc(C2CCN(Cc3nc4ccccc4n3C)CC2)c1", "values": [{"measurement": "EC50", "setting": "[14]", "result": "> 10", "unit": "µM"}]}, {"smiles": "Cn1c(CN2CCC(c3ccc(OC(F)(F)F)cc3F)CC2)nc2ncccc21", "values": [{"measurement": "Ki", "setting": "D(2) dopamine receptor", "result": 1.18, "unit": "µM"}, {"measurement": "EC50", "setting": "[14]", "result": 0.025, "unit": "µM"}]}, {"smiles": "COc1ccccc1N1CCN(Cc2c(Br)c(=O)n(-c3ccccc3)n2C)CC1", "values": [{"measurement": "EC50", "setting": "[14]", "result": 0.891, "unit": "µM"}]}, {"smiles": "Cn1c(CN2CCC(c3cccc(C#N)c3)CC2)nc2ccccc21", "values": [{"measurement": "EC50", "setting": "[14]", "result": 1.62, "unit": "µM"}]}, {"smiles": "Cn1c(CN2CCC(c3ccc(C(F)(F)F)cc3)C(O)C2)nc2ncccc21", "note": "(trans isomer)", "values": [{"measurement": "EC50", "setting": "[14]", "result": "> 10", "unit": "µM"}]}, {"smiles": "Cn1c(CN2CCC(c3ccc(C(F)(F)F)cc3)CC2)nc2cccnc21", "values": [{"measurement": "EC50", "setting": "[14]", "result": 0.285, "unit": "µM"}]}, {"smiles": "C[C@H]1CN(Cc2nc3ncccc3n2C)CC[C@H]1c1ccc(Cl)cc1F", "values": [{"measurement": "Ki", "setting": "D(2) dopamine receptor", "result": 1.62, "unit": "µM"}, {"measurement": "EC50", "setting": "[14]", "result": 0.028, "unit": "µM"}]}, {"smiles": "C[C@H]1CN(Cc2nc3ncccc3n2C)CC[C@H]1c1ccc(C(F)(F)F)cc1F", "values": [{"measurement": "Papp A→B at 1 µM", "setting": "[1]", "result": 260, "unit": "nm/s"}, {"measurement": "EC50", "setting": "[15]", "result": 0.003, "unit": "µM"}, {"measurement": "Kp at 1 h", "setting": "[4]", "result": 7}, {"measurement": "clearance", "setting": "[16]", "result": 0.45, "unit": "L/h/kg"}, {"measurement": "Cmax", "setting": "[17]", "result": 3.12, "unit": "µM"}, {"measurement": "Activity", "setting": "[5]", "result": "inactive"}, {"measurement": "Activity", "setting": "[6]", "result": "inactive"}, {"measurement": "Ratio", "setting": "MDCK", "result": 1.7}, {"measurement": "Ratio", "setting": "HEK293", "result": "> 584"}, {"measurement": "Activity", "setting": "[8]", "result": "inactive"}, {"measurement": "Ki", "setting": "D(2) dopamine receptor", "result": "> 5.26", "unit": "µM"}, {"measurement": "Kp at 1 h", "setting": "[11]", "result": 1.9}, {"measurement": "EC50", "setting": "[14]", "result": 0.009, "unit": "µM"}, {"measurement": "bioavailability", "setting": "[18]", "result": 74, "unit": "%"}, {"measurement": "Fu", "setting": "Brain", "result": 0.5, "unit": "%"}, {"measurement": "Activity", "setting": "[12]", "result": "inactive"}, {"measurement": "Activity", "setting": "[13]", "result": "inactive"}]}, {"smiles": "C[C@@H]1CN(Cc2nc3ncccc3n2C)CC[C@@H]1c1ccc(C(F)(F)F)cc1F", "values": [{"measurement": "EC50", "setting": "[14]", "result": 0.993, "unit": "µM"}]}, {"smiles": "Cn1c(CN2CCC(c3ccc(C(F)(F)F)cc3F)CC2)nc2ncccc21", "values": [{"measurement": "Ki", "setting": "D(2) dopamine receptor", "result": 1.78, "unit": "µM"}, {"measurement": "EC50", "setting": "[14]", "result": 0.0251, "unit": "µM"}]}, {"smiles": "Cn1c(CN2CCC(c3ccccc3C(F)(F)F)CC2)nc2ccccc21", "values": [{"measurement": "EC50", "setting": "[14]", "result": 0.109, "unit": "µM"}]}, {"smiles": "Cn1c(CN2CCC(c3ccc(Cl)cc3F)CC2)nc2ccccc21", "values": [{"measurement": "EC50", "setting": "[14]", "result": 0.0076, "unit": "µM"}]}, {"smiles": "C[C@@H]1CN(Cc2nc3ncccc3n2C)CC[C@@H]1c1ccc(Cl)cc1F", "values": [{"measurement": "EC50", "setting": "[14]", "result": "> 1.81", "unit": "µM"}]}]}
